{
  "source": "patent US20160201132A1",
  "about": "“GENE EXPRESSION BIOMARKERS OF LAQUINIMOD RESPONSIVENESS” (Teva Pharmaceutical Industries Ltd., priority 2013, published 2016)",
  "origin": "cited, not measured here",
  "key": {"RRMS patients [1]": {"tested_on": "RRMS patients", "settings": "cited from earlier work"}, "RRMS patients [2]": {"tested_on": "RRMS patients", "settings": "106 RRMS patients vs 102 placebo treated RRMS patients; cited from earlier work"}},
  "data": [
    {"smiles": "CCN(C(=O)c1c(O)c2c(Cl)cccc2n(C)c1=O)c1ccccc1", "note": "[LAQ, 5-chloro-N-ethyl-4-hydroxy-1-methyl-2-oxo-N-phenyl-1,2-dihydroquinoline-3-carboxamide]", "values": [
      {"measurement": "annualized relapse rate", "setting": "RRMS patients [1]; RRMS patients treated for 24 months", "value": "modestly decreased"},
      {"measurement": "safety and tolerability profile", "setting": "RRMS patients [1]; two phase III trials (BRAVO, ALLEGRO)", "value": "favorable"},
      {"measurement": "reduction in the cumulative number of gadolinium enhanced lesions in brain MRI", "setting": "RRMS patients [2]", "value": "about 40%"}
    ]}
  ]
}
